{"source": "patent US20220409581A1", "about": "“METHODS AND COMPOSITIONS FOR TREATMENT OF SOLID TUMORS USING F16 ISOINDOLE SMALL MOLECULES” (Nova Southeastern University, priority 2019, published 2022)", "key": {"recurrent GBM": {"system": "recurrent GBM", "settings": "cited from earlier work"}, "[1]": {"settings": "rats and monkeys; cited from earlier work"}, "[2]": {"system": "Glioblastoma multiforme (GBM)", "settings": "human, in vivo; cited from earlier work"}, "[3]": {"system": "U87MG-luc intracranial xenograft", "assay": "Intracranial glioblastoma xenograft model with bioluminescence imaging", "method": "For tolerability study, 8-10 weeks old male BALB/c mice weighing approximately 25 g were used (Charles Rivers, US). For intracranial study, 8-10 weeks old female athymic nude (Nu/Nu) mice weighing approximately 25 g were used (Taconic Biosciences, US). All animals were housed in pathogen-free ventilated cages under environmentally controlled conditions of humidity and temperature (22° C.; 12:12 h light-dark cycle) with free access to pathogen-free food and water.\nF16 (100 mg/kg) was dissolved in a 10% DMSO+90% KolliphorEL (KP). TMZ (50 mg/kg) was dissolved in 10% DMSO+90% phosphate-buffered saline (PBS). All drugs were prepared fresh before the scheduled injection [21]. The total volume of injection was 100 μL/mouse for all experiments which was administered intraperitoneally.\nFor intracranial study, the glioblastoma xenograft model was developed using athymic nude (Nu/Nu) mice. Briefly, mice were placed under general anesthesia (intraperitoneal injection of 100 mg/kg Ketamine and 10 mg/kg Xylazine) and were positioned in the stereotaxic device. A median incision of ˜1 cm was made, and a burr hole was drilled into the right striatum of the skull (1.0 mm forward and 2.0 mm lateral to the bregma). Subsequently, U87MG cells expressing the luc reporter gene (2×10^5 cells in 3 μL PBS) was injected using a 10-μl Hamilton syringe at the rate of 1 μL/min at a depth of 3 mm. Once injection was completed, the needle was kept in place for 2 minutes and then slowly removed, and the hole was sealed with a sterile bone wax. The incision was closed, and triple antibiotic ointment was applied. One week after tumor cell transplantation, mice were divided randomly into five groups (n=5 in each group): 1) control treated with DMSO in PBS, 2) control treated with DMSO in KP, 3) treated with F16 (100 mg/kg), 4) treated with temozolomide (50 mg/kg) and 5) treated with F16 (100 mg/kg) and 3 h later treated with temozolomide (50 mg/kg). One more group with no tumor implant was added to the study as a negative control (n=5). The experimental mice were treated twice per week for 3 weeks.\nBioluminescence imaging (BLI) was used to assess and confirm tumor growth in intracranial xenograft. BLI was carried out in vivo using the Bruker Xtreme which is a sensitive optical X-ray machine designed for preclinical in vivo study based on BLI concept. Briefly, mice were injected intraperitoneally with D-luciferin (Sigma) dissolved in saline at a dose of 150 mg/kg body weight. Immediately after the injection, mice were anesthetized by isoflurane and series of bioluminescent images was acquired with 3-minutes acquisition intervals for approximately 20 minutes, by which time, the luciferin had been washed out. The image with the peak BLI intensity was used for quantification in units of photon counts."}, "U87MG cells [4]": {"system": "U87MG cells", "assay": "MTT cytotoxicity assay", "assay_type": "cell-based", "settings": "Homo sapiens, U-87 MG, 24 h, read-out: IC50 (50% reduction of U87MG cell viability)", "procedure": "The cell viability was assessed using a 3-(4,5-dimethylthiazol-2-yl)-2, 5-diphenyltetrazolium bromide (MTT) assay (Sigma-Aldrich, St. Louis, Mo., USA), and trypan blue dye exclusion method (TBDE). For the MTT assay, U87MG cells were cultured in a 96 well-plate at a density of 5×10^3 per well and incubated at 37° C. under 5% CO2 for 24 h. Then, the cells were treated with different concentrations of F16 (0.1-100 μM) and TMZ (0.1-500 μM) for 24 h. At the end of treatment, the old medium was aspirated, and 10 μL of MTT (0.5 mg/mL in PBS) was added to each well and the cells were incubated at 37° C. for an additional 3 h. Finally, the MTT solution was removed, and 100 μL of dimethyl sulfoxide (DMSO) was added to each well. The plate was gently rotated on an orbital shaker for 10 min to completely dissolve the precipitation and the absorbance was measured at 570 nm using Microplate Reader (VersaMax, Molecular Devices, Sunnyvale, Calif., USA). For the TBDE method, U87MG cells were cultured in a 24 well-plate at a density of 5×10^4 per well and incubated at 37° C. under 5% CO2 for 48 h. Then, the cells were treated with different concentrations of F16 (0.1-100 μM) and TMZ (10-1000 μM). […] The viable cells were counted with a Bio-Rad TC20™ Automated Cell Counter (Hercules, Calif., USA)"}, "[5]": {"system": "U87MG derived xenograft tumor", "assay_type": "in vivo", "procedure": "Lauderdale, Fla. Animals were subcutaneously injected into the right flank of each mouse, with 4×10^6 of U87MG glioblastoma cancer cells suspended in 100 μL of PBS mixed with Matrigel (BD Biosciences). […] The experimental mice were treated once in every 2 days for the period of 16 days. At the end of the treatment, the tumors were isolated and then the tumor length (L) and width (W) were measured to calculate the tumor volume (TV) according to the formula: TV=1/2×(L×W^2). To determine the tumor inhibitory effects of F16 and TMZ treatments, the inhibition ratio (IR) was calculated using the formula: […]\nAt the end of the treatment, all the animals in the control and experimental groups were sacrificed and tumors were excised and weighed."}, "[6]": {"assay": "Tolerability / toxicity study", "settings": "i.p. twice a week for 4 weeks", "method": "For tolerability study, 8-10 weeks old male BALB/c mice weighing approximately 25 g were used (Charles Rivers, US). […] All animals were housed in pathogen-free ventilated cages under environmentally controlled conditions of humidity and temperature (22° C.; 12:12 h light-dark cycle) with free access to pathogen-free food and water. All animal care and experiments were performed in accordance with the guidelines and approval of the Institutional Animal Care and Use Committee (IACUC) of Nova Southeastern University (NSU), Ft. Lauderdale, Fla.\nTMZ (50 mg/kg) was dissolved in 10% DMSO+90% phosphate-buffered saline (PBS). All drugs were prepared fresh before the scheduled injection [21]. The total volume of injection was 100 μL/mouse for all experiments which was administered intraperitoneally.\nFor tolerability studies, BALB/c mice were randomly assigned to 4 different treatment groups (FIG. 15: Table 1). At the end of the treatment period, blood samples from all the mice were collected and sent to the Department of Comparative Pathology at the University of Miami (City of Miami, Fla.) to analyze the hematological and biochemical parameters.\nMice injected with KP were used as controls. All drugs were administered as i.p. injections twice a week for 4 weeks. Independent toxicity evaluations, serum biochemistry, post-mortem gross examination, and histopathological examination of major organs were performed at Comparative Pathology Department at the University of Miami, Fla."}, "U87MG cells [7]": {"system": "U87MG cells", "assay": "Trans-well migration assay", "assay_type": "cell-based, human", "settings": "24 h; F16 20 μM, TMZ 400 μM", "procedure": "The migration ability of U87MG cell was determined using both scratch and trans-well assays. For the scratch assay, monolayer of U87MG cells was grown on 6-well plates close to 80% confluency. Using a sterile 200 μL tip, a single straight line scratch was made in each well. The wells were washed with phosphate-buffered saline (PBS) and refilled with growth medium containing various concentrations of F16 (0.1-20 μM) and TMZ (10-400 μM). The images were captured using Leica microscope at 12 h and 24 h post-scratch. For the trans-well migration assay, 6.5 mm trans-well plates polycarbonate membrane inserts (Corning, N.Y., USA) with 8 μm pore size were used. After an initial equilibrium period, 5×10^4 cells suspended in 100 μL basal medium without FBS were added to the upper compartment of the trans-well inserts and exposed to different concentrations of F16 (0.1-20 μM) and TMZ (10-400 μM). The lower chamber was filled with 600 μL of EMEM medium supplemented with 10% fetal bovine serum. Then, trans-well plates were incubated at 37° C. under 5% CO2 for 24 h to allow for the migration of U87MG cells across the porous membrane. […] Five different fields per well were captured with a Leica microscope (DMI 3000 B; IL, USA) using 10× magnification, and the number of cells that penetrated the membrane was counted using ImageJ software (NIH Image, Bethesda, Md., USA)."}, "U87MG cells [8]": {"system": "U87MG cells", "assay": "Trypan blue dye exclusion method (TBDE)", "assay_type": "cell-based, human", "settings": "F16 100 μM, TMZ 1000 μM", "procedure": "The cell viability was assessed using a 3-(4,5-dimethylthiazol-2-yl)-2, 5-diphenyltetrazolium bromide (MTT) assay (Sigma-Aldrich, St. Louis, Mo., USA), and trypan blue dye exclusion method (TBDE). For the MTT assay, U87MG cells were cultured in a 96 well-plate at a density of 5×10^3 per well and incubated at 37° C. under 5% CO2 for 24 h. Then, the cells were treated with different concentrations of F16 (0.1-100 μM) and TMZ (0.1-500 μM) for 24 h. At the end of treatment, the old medium was aspirated, and 10 μL of MTT (0.5 mg/mL in PBS) was added to each well and the cells were incubated at 37° C. for an additional 3 h. Finally, the MTT solution was removed, and 100 μL of dimethyl sulfoxide (DMSO) was added to each well. The plate was gently rotated on an orbital shaker for 10 min to completely dissolve the precipitation and the absorbance was measured at 570 nm using Microplate Reader (VersaMax, Molecular Devices, Sunnyvale, Calif., USA). For the TBDE method, U87MG cells were cultured in a 24 well-plate at a density of 5×10^4 per well and incubated at 37° C. under 5% CO2 for 48 h. Then, the cells were treated with different concentrations of F16 (0.1-100 μM) and TMZ (10-1000 μM). After 24, 48, and 72 h of treatments, an aliquot (50 μL) of the cell suspension from each treatment was mixed with 1:1 (v/v) volume of 0.4% trypan blue. The viable cells were counted with a Bio-Rad TC20™ Automated Cell Counter (Hercules, Calif., USA)"}}, "note": "Entries after “also recorded” stand apart in the source; their conditions may differ.", "data": [{"molecule": "Bevacizumab [BVZ]", "values": [{"measurement": "overall survival (OS)", "setting": "recurrent GBM; patients with (recurrent) GBM", "result": "no improvement; also recorded: failed to improve"}, {"measurement": "progression free survival (PFS)", "setting": "recurrent GBM; recurrent GBM", "result": "did improve"}]}, {"molecule": "Cn1nnc2c(C(N)=O)ncn2c1=O", "note": "[TMZ, Temozolomide, reference compound]", "values": [{"measurement": "levels of TMZ in the brain as % of the plasma concentration", "setting": "[1]", "result": "30-40%"}, {"measurement": "TMZ treated patients who develop significant toxicity", "setting": "[2]", "result": "15-20%"}, {"measurement": "body weight", "setting": "[3]; compared to mice treated with vehicles (PBS/KP)", "result": "No significant change"}, {"measurement": "tumor inhibition", "setting": "[3]; intracranial xenograft model", "result": 99, "unit": "%"}, {"measurement": "condition of excised brains", "setting": "[3]; mouse, in vivo", "result": "fragile and damaged"}, {"measurement": "mice that lived until day 50 post implantation", "setting": "[3]; mouse, in vivo", "result": 60, "unit": "%"}, {"measurement": "median survival", "setting": "[3]; vehicles-PBS 34 days, vehicles-KP 36 days", "result": 47, "unit": "days"}, {"measurement": "IC50", "setting": "U87MG cells [4]", "result": 430, "unit": "µM"}, {"measurement": "suppression of tumor growth", "setting": "[5]; i.p., once every 2 days for 16 days, F16 100 mg/kg, TMZ 50 mg/kg, combination of both", "result": 53, "unit": "%"}, {"measurement": "signs of toxicity / tolerability", "setting": "[5]; mouse, in vivo", "result": "symptoms of toxicity"}, {"measurement": "ALT level (liver function)", "setting": "[6]", "result": "Significant elevation; also recorded: significantly elevating"}, {"measurement": "BUN levels (kidney function)", "setting": "[6]", "result": "No significant changes"}, {"measurement": "RBC", "setting": "[6]", "result": "slight increase"}, {"measurement": "WBC counts", "setting": "[6]", "result": "significant increase"}, {"measurement": "hematocrit", "setting": "[6]", "result": "slight increase"}, {"measurement": "U87MG cells trapped in the upper compartment as compared to untreated cells", "setting": "U87MG cells [7]", "result": "About 80%"}, {"measurement": "maximum percentage of U87MG cells death", "setting": "U87MG cells [8]; 24 h", "result": 68, "unit": "%"}, {"measurement": "maximum percentage of U87MG cells death", "setting": "U87MG cells [8]; 48 h", "result": 95, "unit": "%"}, {"measurement": "maximum percentage of U87MG cells death", "setting": "U87MG cells [8]; 72 h", "result": 82, "unit": "%"}]}]}
